Target: T1, KOD DNA pol (exo-) (Thermococcus kodakarensis, UniProt P77933, D141A/E143A)
T1 construct: exonuclease-deficient mature polymerase (inteins absent); codon-optimized, pET24a, E. coli BL21(DE3); heparin and Superdex 75; no tag mentioned
Experiment: X-ray crystal structure of closed ternary complex
Assay type: binding
Details: with ddC-terminated primer/template DNA; Mg2+ (site A) and two Mn2+ (sites B, C); polymerase active site; pH 7.5

Nc1ncnc2c1ncn2[C@H]1C[C@H](O)[C@@H](COP(=O)(O)OP(=O)(O)OP(=O)(O)O)O1 [dATP, 2’-deoxy-adenosine-5’-triphosphate]
X-ray crystal structure of closed ternary complex: KOD DNA pol binds the incoming dATP in a pocket formed by the palm
